{
  "source": "patent US10278390B2",
  "about": "“Antimicrobial transparent plastic in the form of film or extruded shape” (priority 2016, dated 2019)",
  "origin": "cited, not measured here",
  "tested_on": "bacteria",
  "data": [
    {"smiles": "[Ag+]", "note": "[silver ions]", "values": [
      {"measurement": "concentrations at which the metabolism of bacteria is adversely affected", "value": "0.01 to 0.1", "unit": "mg/L"}
    ]}
  ]
}
